{
  "source": "patent US20230119239A1",
  "about": "“OROMUCOSAL FILM COMPOSITIONS” (ReForm Therapeutics Ltd., priority 2021, published 2023)",
  "test": "Ex vivo permeation of liraglutide solution through porcine sublingual mucosa, Franz diffusion cell",
  "format": "in vitro ADME",
  "conditions": "liraglutide 3 mg/mL + Transcutol® HP (10% solution) compared with liraglutide solution alone; 120 minutes; receptor phosphate buffer pH 8.5; FIG. 4",
  "procedure": "The solution of liraglutide, and solution of liraglutide and permeation enhancer was tested. […] Samples were taken at 0 and 120 minutes to determinate the presence of liraglutide in the receptor chamber. The concentration level of liraglutide was determined using HPLC/MS method.",
  "data": [
    {"smiles": "CCCCCCCCCCCCCCCC(=O)N[C@@H](CCC(=O)NCCCC[C@H](NC(=O)[C@H](C)NC(=O)[C@H](C)NC(=O)[C@H](CCC(N)=O)NC(=O)CNC(=O)[C@H](CCC(=O)O)NC(=O)[C@H](CC(C)C)NC(=O)[C@H](Cc1ccc(O)cc1)NC(=O)[C@H](CO)NC(=O)[C@H](CO)NC(=O)[C@@H](NC(=O)[C@H](CC(=O)O)NC(=O)[C@H](CO)NC(=O)[C@@H](NC(=O)[C@H](Cc1ccccc1)NC(=O)[C@@H](NC(=O)CNC(=O)[C@H](CCC(=O)O)NC(=O)[C@H](C)NC(=O)[C@@H](N)Cc1cnc[nH]1)[C@@H](C)O)[C@@H](C)O)C(C)C)C(=O)N[C@@H](CCC(=O)O)C(=O)N[C@@H](Cc1ccccc1)C(=O)N[C@H](C(=O)N[C@@H](C)C(=O)N[C@@H](Cc1c[nH]c2ccccc12)C(=O)N[C@@H](CC(C)C)C(=O)N[C@H](C(=O)N[C@@H](CCCNC(=N)N)C(=O)NCC(=O)N[C@@H](CCCNC(=N)N)C(=O)NCC(=O)O)C(C)C)[C@@H](C)CC)C(=O)O", "note": "[liraglutide]", "values": [
      {"measurement": "permeation of liraglutide through sublingual mucosa ex vivo (in words)", "value": "significantly increased permeation"}
    ]}
  ]
}
